The compounds below were run against wild-type human cardiac sodium channel, hNav1.5 (Homo sapiens, UniProt Q14524) (assay: Late INa screening assay (late sodium current, PatchXpress whole cell patch clamp)). Conditions: compound at 10 μM; read-out: Late INa % blk.
wild-type human cardiac sodium channel, hNav1.5, sequence (Q14524 whole entry): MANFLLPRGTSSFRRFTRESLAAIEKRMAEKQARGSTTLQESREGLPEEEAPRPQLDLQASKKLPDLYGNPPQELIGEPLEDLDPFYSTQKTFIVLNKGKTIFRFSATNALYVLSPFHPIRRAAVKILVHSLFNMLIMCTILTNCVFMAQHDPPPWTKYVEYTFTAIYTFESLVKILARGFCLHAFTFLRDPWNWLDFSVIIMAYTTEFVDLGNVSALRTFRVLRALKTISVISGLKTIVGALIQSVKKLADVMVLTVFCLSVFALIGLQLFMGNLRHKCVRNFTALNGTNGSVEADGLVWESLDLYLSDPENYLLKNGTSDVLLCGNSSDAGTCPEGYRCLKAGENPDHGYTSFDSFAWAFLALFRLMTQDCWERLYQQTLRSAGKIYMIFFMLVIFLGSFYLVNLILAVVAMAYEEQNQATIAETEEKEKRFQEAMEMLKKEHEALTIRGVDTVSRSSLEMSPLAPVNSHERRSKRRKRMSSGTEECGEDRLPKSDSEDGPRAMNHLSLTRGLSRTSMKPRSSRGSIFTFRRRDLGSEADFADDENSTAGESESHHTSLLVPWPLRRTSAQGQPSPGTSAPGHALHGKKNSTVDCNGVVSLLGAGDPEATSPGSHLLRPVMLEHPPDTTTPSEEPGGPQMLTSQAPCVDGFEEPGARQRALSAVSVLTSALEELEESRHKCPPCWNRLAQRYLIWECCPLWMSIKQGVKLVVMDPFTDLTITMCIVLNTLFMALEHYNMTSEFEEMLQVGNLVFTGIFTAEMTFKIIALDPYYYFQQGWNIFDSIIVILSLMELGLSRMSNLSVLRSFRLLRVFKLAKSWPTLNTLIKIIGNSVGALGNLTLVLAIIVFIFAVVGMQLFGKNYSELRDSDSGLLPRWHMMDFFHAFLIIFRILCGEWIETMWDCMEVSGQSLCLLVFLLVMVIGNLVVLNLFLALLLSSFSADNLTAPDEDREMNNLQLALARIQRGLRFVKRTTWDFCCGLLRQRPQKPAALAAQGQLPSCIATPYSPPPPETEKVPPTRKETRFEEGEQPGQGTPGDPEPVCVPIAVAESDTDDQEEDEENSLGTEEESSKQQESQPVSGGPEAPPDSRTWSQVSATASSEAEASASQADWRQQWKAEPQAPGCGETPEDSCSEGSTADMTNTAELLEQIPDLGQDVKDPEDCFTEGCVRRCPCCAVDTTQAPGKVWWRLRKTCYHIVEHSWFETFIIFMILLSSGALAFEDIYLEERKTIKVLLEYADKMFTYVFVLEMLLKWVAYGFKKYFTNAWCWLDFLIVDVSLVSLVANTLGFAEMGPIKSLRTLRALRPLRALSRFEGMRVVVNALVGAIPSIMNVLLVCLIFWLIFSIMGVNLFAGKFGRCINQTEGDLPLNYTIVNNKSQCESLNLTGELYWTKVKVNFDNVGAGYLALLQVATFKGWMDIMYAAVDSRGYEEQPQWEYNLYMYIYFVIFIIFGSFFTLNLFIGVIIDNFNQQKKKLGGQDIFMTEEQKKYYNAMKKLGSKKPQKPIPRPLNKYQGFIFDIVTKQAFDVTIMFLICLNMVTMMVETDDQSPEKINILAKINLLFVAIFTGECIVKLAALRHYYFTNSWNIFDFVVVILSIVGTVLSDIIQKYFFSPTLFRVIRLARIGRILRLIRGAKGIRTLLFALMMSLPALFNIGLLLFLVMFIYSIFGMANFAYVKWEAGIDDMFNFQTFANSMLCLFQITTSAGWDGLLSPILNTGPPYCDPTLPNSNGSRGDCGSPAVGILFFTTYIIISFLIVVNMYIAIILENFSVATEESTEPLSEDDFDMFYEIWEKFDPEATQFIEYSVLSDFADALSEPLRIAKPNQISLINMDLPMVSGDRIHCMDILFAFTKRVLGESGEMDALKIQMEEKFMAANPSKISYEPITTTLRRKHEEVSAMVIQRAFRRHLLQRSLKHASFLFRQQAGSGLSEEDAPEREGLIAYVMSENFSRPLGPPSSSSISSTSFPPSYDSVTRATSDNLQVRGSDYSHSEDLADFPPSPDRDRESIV
Type: cell-based
Work on `CC1=C(C(=O)N2CCC(c3ccccc3)CC2)C(c2cccc3ccccc23)C2=C(CCCC2=O)N1` (centres unmarked) [PT-170, 2-methyl-4-(naphthalen-1-yl)-3-(4-phenylpiperidine-1-carbonyl)-4,6,7,8-tetrahydroquinolin-5(1H)-one] yielded an inhibition at 10 µM of 9.8%. `CC1=C(c2nnc(-c3ccccc3)o2)C(c2cccc3ccccc23)n2nnnc2N1` (centres unmarked) [PT-203, 2-(5-methyl-7-(naphthalen-1-yl)-4,7-dihydrotetrazolo[1,5-a]pyrimidin-6-yl)-5-phenyl-1,3,4-oxadiazole] was tested, and the inhibition at 10 µM was 10.9%. Work on `CC1=C(C(=O)N2CCC(c3cccc(C(=O)O)c3)CC2)C(c2cccc3ccccc23)C2=C(CCCC2=O)N1` (centres unmarked) [PT-172, 3-(1-(2-methyl-4-(naphthalen-1-yl)-5-oxo-1,4,5,6,7,8-hexahydroquinoline-3-carbonyl)piperidin-4-yl)benzoic acid] yielded an inhibition at 10 µM of 16.3%. In the case of `CC1=C(C(=O)OCc2ccccc2)C(c2ccc(C)c3ccccc23)n2nnnc2N1` (centres unmarked) [PT-031, benzyl 5-methyl-7-(4-methylnaphthalen-1-yl)-4,7-dihydrotetrazolo[1,5-a]pyrimidine-6-carboxylate], the inhibition at 10 µM was 28.6%. `CC1=C(C(=O)OCc2cccc(-c3nnn[nH]3)c2)C(c2cccc3ccccc23)n2nnnc2N1` (centres unmarked) [PT-271, 3-(1H-tetrazol-5-yl)benzyl 5-methyl-7-(naphthalen-1-yl)-4,7-dihydrotetrazolo[1,5-a]pyrimidine-6-carboxylate] showed an inhibition at 10 µM of 5.8%. `CCOC(=O)CN1C(C)=C(C(=O)OCc2ccccc2)C(c2cccc3ccccc23)n2nnnc21` (centres unmarked) [PT-331, benzyl 4-(2-ethoxy-2-oxoethyl)-5-methyl-7-(naphthalen-1-yl)-4,7-dihydrotetrazolo[1,5-a]pyrimidine-6-carboxylate] gave an inhibition at 10 µM of 29.6%. `CCOC(=O)C1=C(C)Nc2nnnn2C1c1cccc(Oc2cccc(C(=O)O)c2)c1` (centres unmarked) [PT-274, 3-(3-(6-(ethoxycarbonyl)-5-methyl-4,7-dihydrotetrazolo[1,5-a]pyrimidin-7-yl)phenoxy)benzoic acid] was tested, and the inhibition at 10 µM was 16.8%. Compound `CCOC(=O)C1=C(C)Nc2nnnn2C1c1ccccc1Oc1ccc(-c2nnn[nH]2)cc1` (centres unmarked) [PT-481, ethyl 7-(2-(4-(1H-tetrazol-5-yl)phenoxy)phenyl)-5-methyl-4,7-dihydrotetrazolo[1,5-a]pyrimidine-6-carboxylate] has an inhibition at 10 µM of 18%. In the case of `CCOC(=O)C1=C(C)OC(N)=C(C#N)C1c1ccco1` (centres unmarked) [PT-092, ethyl 6-amino-5-cyano-4-(furan-2-yl)-2-methyl-4H-pyran-3-carboxylate], the inhibition at 10 µM was -0.2%. Work on `CC1=C(C(=O)OCc2ccccc2)C(c2ccccc2Br)n2nnnc2N1` (centres unmarked) [PT-387, benzyl 7-(2-bromophenyl)-5-methyl-4,7-dihydrotetrazolo[1,5-a]pyrimidine-6-carboxylate] yielded an inhibition at 10 µM of 84.8%. `CC1=C(C(=O)OCc2ccccc2)C(c2ccc(B(O)O)cc2)n2nnnc2N1` (centres unmarked) [PT-300, 4-(6-(benzyloxycarbonyl)-5-methyl-4,7-dihydrotetrazolo[1,5-a]pyrimidin-7-yl)phenylboronic acid] showed an inhibition at 10 µM of 14.4%. `CCOC(=O)C1=C(C(F)(F)F)Nc2nnnn2C1c1cccs1` (centres unmarked) [PT-016, ethyl 7-(thiophen-2-yl)-5-(trifluoromethyl)-4,7-dihydrotetrazolo[1,5-a]pyrimidine-6-carboxylate] gave an inhibition at 10 µM of 30.7%. For `CC1=C(C(=O)OCc2ccccc2)C(c2ccccc2OCc2ccccc2)C2=C(CCCC2=O)N1` (centres unmarked) [PT-328, benzyl 4-(2-(benzyloxy)phenyl)-2-methyl-5-oxo-1,4,5,6,7,8-hexahydroquinoline-3-carboxylate], the inhibition at 10 µM was 58.1%. Work on `CC1=C(C(=O)N2CCN(c3ccc(C(=O)O)cc3)CC2)C(c2cccc3ccccc23)C2=C(CCCC2=O)N1` (centres unmarked) [PT-297, 4-(4-(2-methyl-4-(naphthalen-1-yl)-5-oxo-1,4,5,6,7,8-hexahydroquinoline-3-carbonyl)piperazin-1-yl)benzoic acid] yielded an inhibition at 10 µM of 4.9%. `CCOC(=O)C1=C(C)Nc2nnnn2C1c1ccccc1-c1ccc(-c2nnn[nH]2)cc1` (centres unmarked) [PT-500, ethyl 7-(4′-(1H-tetrazol-5-yl)biphenyl-2-yl)-5-methyl-4,7-dihydrotetrazolo[1,5-a]pyrimidine-6-carboxylate] showed an inhibition at 10 µM of 2.7%. With `CC1=C(C(=O)OCc2ccc(-c3nnn[nH]3)cc2)C(c2cccc3ccccc23)n2nnnc2N1` (centres unmarked) [PT-060, 4-(1H-tetrazol-5-yl)benzyl 5-methyl-7-(naphthalen-1-yl)-4,7-dihydrotetrazolo[1,5-a]pyrimidine-6-carboxylate] the inhibition at 10 µM was 5.6%. For `CCOC(=O)C1=C(C)NC(C)=C(C(=O)OCC)C1c1ccoc1` [PT-120, diethyl 4-(furan-3-yl)-2,6-dimethyl-1,4-dihydropyridine-3,5-dicarboxylate], the inhibition at 10 µM was 25.7%. Compound `CCOC(=O)C1=C(C)Nc2nnnn2C1c1cccc(OCc2cccc(C(=O)O)c2)c1` (centres unmarked) [PT-269, 3-((3-(6-(ethoxycarbonyl)-5-methyl-4,7-dihydrotetrazolo[1,5-a]pyrimidin-7-yl)phenoxy)methyl)benzoic acid] has an inhibition at 10 µM of 12.3%. `COc1cc(Cl)ccc1COC(=O)C1=C(C)Nc2nnnn2C1c1cccc2ccccc12` (centres unmarked) [PT-304, 4-chloro-2-methoxybenzyl 5-methyl-7-(naphthalen-1-yl)-4,7-dihydrotetrazolo[1,5-a]pyrimidine-6-carboxylate] showed an inhibition at 10 µM of 63%. `CCOC(=O)C1=C(C)Nc2[nH]nc(-c3ccc(C)cc3)c2C1c1cccc2ccccc12` (centres unmarked) [PT-073, ethyl 6-methyl-4-(naphthalen-1-yl)-3-p-tolyl-4,7-dihydro-1H-pyrazolo[3,4-b]pyridine-5-carboxylate] showed an inhibition at 10 µM of -3.2%. Work on `CC1=C(C(=O)OC(C)(C)c2ccccc2)C(c2cccc3ccccc23)n2nnnc2N1` (centres unmarked) [PT-065, 2-phenylpropan-2-yl 5-methyl-7-(naphthalen-1-yl)-4,7-dihydrotetrazolo[1,5-a]pyrimidine-6-carboxylate] yielded an inhibition at 10 µM of 59%. Work on `CCOC(=O)C1=C(C)NC2=C(C(=O)CCC2)C1c1ccc2cc(OC)ccc2c1` (centres unmarked) [PT-137, ethyl 4-(6-methoxynaphthalen-2-yl)-2-methyl-5-oxo-1,4,5,6,7,8-hexahydroquinoline-3-carboxylate] yielded an inhibition at 10 µM of 25.3%. For `COCCOC(=O)C1=C(C)NC2=C(C(=O)CC(C)(C)C2)C1c1ccc(Oc2ccccc2)cc1` (centres unmarked) [PT-156, 2-methoxyethyl 2,7,7-trimethyl-5-oxo-4-(4-phenoxyphenyl)-1,4,5,6,7,8-hexahydroquinoline-3-carboxylate], the inhibition at 10 µM was 36.6%. For `CCOC(=O)C1=C(C)Nc2nnnn2C1c1ccccc1OCc1cccc(C(=O)O)c1` (centres unmarked) [PT-268, 3-((2-(6-(ethoxycarbonyl)-5-methyl-4,7-dihydrotetrazolo[1,5-a]pyrimidin-7-yl)phenoxy)methyl)benzoic acid], the inhibition at 10 µM was 9.5%. With `CC1=C(C(=O)OCc2ccccc2)C(c2ccccc2)C2=C(CCCC2=O)N1` (centres unmarked) [PT-323, benzyl 2-methyl-5-oxo-4-phenyl-1,4,5,6,7,8-hexahydroquinoline-3-carboxylate] the inhibition at 10 µM was 48.9%. `CC1=C(C(=O)OCc2ccccc2)C(c2ccccc2-c2ccccc2C(N)=O)n2nnnc2N1` (centres unmarked) [PT-388, benzyl 7-(2′-carbamoylbiphenyl-2-yl)-5-methyl-4,7-dihydrotetrazolo[1,5-a]pyrimidine-6-carboxylate] was tested, and the inhibition at 10 µM was 2.7%. Work on `CCOC(=O)C1=C(C)Nc2nnnn2C1c1ccccc1Oc1ccc(C(=O)OCC)cc1` (centres unmarked) [PT-483, ethyl 7-(2-(4-(ethoxycarbonyl)phenoxy)phenyl)-5-methyl-4,7-dihydrotetrazolo[1,5-a]pyrimidine-6-carboxylate] yielded an inhibition at 10 µM of 31.8%. `CCOC(=O)C1=C(C(C)C)Nc2nnnn2C1c1ccc2ccccc2c1` (centres unmarked) [PT-012, ethyl 5-isopropyl-7-(naphthalen-2-yl)-4,7-dihydrotetrazolo[1,5-a]pyrimidine-6-carboxylate] showed an inhibition at 10 µM of 40.1%. `COC(=O)C1=C(C)Nc2[nH]ncc2C1c1nc(C)cs1` (centres unmarked) [PT-515, methyl 6-methyl-4-(4-methylthiazol-2-yl)-4,7-dihydro-1H-pyrazolo[3,4-b]pyridine-5-carboxylate] showed an inhibition at 10 µM of 10.8%. Work on `CC1=C(C(=O)OCc2ccccc2)C(c2occc2Br)n2nnnc2N1` (centres unmarked) [PT-400, benzyl 7-(3-bromofuran-2-yl)-5-methyl-4,7-dihydrotetrazolo[1,5-a]pyrimidine-6-carboxylate] yielded an inhibition at 10 µM of 53.2%. `CCOC(=O)C1=C(C)Nc2nnnn2C1c1sccc1-c1ccc(C(=O)O)cc1` (centres unmarked) [PT-292, 4-(2-(6-(ethoxycarbonyl)-5-methyl-4,7-dihydrotetrazolo[1,5-a]pyrimidin-7-yl)thiophen-3-yl)benzoic acid] was tested, and the inhibition at 10 µM was 18.7%. `CCOC(=O)C1=C(C)Nc2nnnn2C1c1cccc(Oc2ccc(C(=O)O)cc2)c1` (centres unmarked) [PT-295, 4-(3-(6-(ethoxycarbonyl)-5-methyl-4,7-dihydrotetrazolo[1,5-a]pyrimidin-7-yl)phenoxy)benzoic acid] was tested, and the inhibition at 10 µM was 7%. `CC1=C(C(=O)NNC(=O)c2ccccc2)C(c2cccc3ccccc23)n2nnnc2N1` (centres unmarked) [PT-069, N′-benzoyl-5-methyl-7-(naphthalen-1-yl)-4,7-dihydrotetrazolo[1,5-a]pyrimidine-6-carbohydrazide] showed an inhibition at 10 µM of 11.5%. `CC1=C(C(=O)OC(C)C)C(c2cccc3ccccc23)C2=C(CCCC2=O)N1` (centres unmarked) [PT-158, isopropyl 2-methyl-4-(naphthalen-1-yl)-5-oxo-1,4,5,6,7,8-hexahydroquinoline-3-carboxylate] gave an inhibition at 10 µM of 38.7%. For `CC1=C(C(=O)OCc2ccccc2)C(c2cccc3cccnc23)n2nnnc2N1` (centres unmarked) [PT-037, benzyl 5-methyl-7-(quinolin-8-yl)-4,7-dihydrotetrazolo[1,5-a]pyrimidine-6-carboxylate], the inhibition at 10 µM was 34.4%. With `COC(=O)C1=C(C)Nc2nnnn2C1c1ccc(-c2ccc(OC)cc2)s1` (centres unmarked) [PT-521, methyl 7-(5-(4-methoxyphenyl)thiophen-2-yl)-5-methyl-4,7-dihydrotetrazolo[1,5-a]pyrimidine-6-carboxylate] the inhibition at 10 µM was 37.5%.

Same assay, conditions: read-out: Late INa % blk
Work on `CCOC(=O)C1=C(C(C)C)Nc2nnnn2C1c1cccc2ccccc12` (centres unmarked) [PT-013, ethyl 5-isopropyl-7-(naphthalen-1-yl)-4,7-dihydrotetrazolo[1,5-a]pyrimidine-6-carboxylate] yielded an inhibition at 10 µM of 45.4%. In the case of `Cc1ccc(-c2n[nH]c3c2C(c2cccc4ccccc24)C2=C(COC2=O)N3)cc1` (centres unmarked) [PT-078], the inhibition at 10 µM was 46.3%.

From patent publication US20090012103A1, “SUBSTITUTED HETEROCYCLIC COMPOUNDS” (priority 2007, published 2009)
